Consider 25 compounds from patent US20180214428A1, “3-(1H-INDOL-2-YL)-1H-PYRAZOLO[3,4-B]PYRIDINES AND THERAPEUTIC USES THEREOF” (Samumed, LLC, priority 2015, published 2018).

For orientation: EC50 means the concentration that produces a half-maximal response. A high value points to a need for much substance. Broadly, the inhibition is the percentage by which the read-out fell short of the control.

The test system of assay [1] is IL-6. Description: IL-6 inhibition in LPS-stimulated THP-1 monocytes (HTRF). The format is cell-based, human. The note with it: Homo sapiens, THP-1 cells; for EC50: 500 ng/mL LPS, 22 h, HTRF IL-6 readout, 10-point dose-response from 10 μM; for inhibition at 10 µM: LPS stimulated, given only where EC50 >10 μM, top concentration 10 μM, read-out: percentage in parentheses beside EC50 >10 (IL-6 inhibition). An outline of the steps: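 THP-1 cells serum-reduced (1% FBS, 24 h), then 5000 cells/well preincubated 2 h with compound (10-point 1:3 series from 10 μM, 0.1% DMSO) before 500 ng/mL LPS for 22 h at 37 °C. Secreted IL-6 quantified by HTRF 665/620 ratio; DMSO-normalised duplicates fitted to four-parameter EC50; above 10 μM, % inhibition at 10 μM given.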
(In TR-FRET formats the signal depends on donor and acceptor labels being close together.)

The subject of assay [2] is Wnt activity (Sp5-Luc reporter gene, SW480 colon carcinoma cells). Description: Screening assay for Wnt activity: Sp5-Luc reporter gene assay in SW480 cells. The format is cell-based, human. The conditions noted are these: Homo sapiens; for inhibition at 10 µM: given for EC50 of >10 μM, read-out: percent inhibition at 10 μM; for EC50: overnight incubation. An outline of the steps: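 SW480 cells stably transduced with a luciferase reporter driven by an Sp5 promoter of eight TCF/LEF sites were plated at 4,000 cells/well in 1% FBS medium. They were exposed overnight at 37° C to a 10-point 1:3 dilution series from 10 μM (0.1% DMSO). Luminescence was normalized to DMSO for four-parameter EC50, or percent inhibition at 10 μM.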
(In general: A reporter such as luciferase makes a cellular process visible.)

A value given as a limit tells only on which side of the number the result lay.

Consider `c1ccc(CNCc2cncc(-c3cnc4[nH]nc(-c5cc6ccccc6[nH]5)c4c3)c2)cc1` [Compound 250, 1-(5-(3-(1H-Indol-2-yl)-1H-pyrazolo[3,4-b]pyridin-5-yl)pyridin-3-yl)-N-benzylmethanamine], for which the EC50 in assay [1] was 4 µM; in assay [2], greater than 10 µM. Moreover, the inhibition at 10 µM in assay [2] was 50.9%.

In assay [1], `c1cc(-c2ccncc2)c2cc(-c3n[nH]c4ncc(-c5ccncc5)cc34)[nH]c2c1` [Compound 111, 5-(Pyridin-4-yl)-3-(4-(pyridin-4-yl)-1H-indol-2-yl)-1H-pyrazolo[3,4-b]pyridine] had a concentration for a half-maximal effect (EC50) of 4.17 µM. Moreover, in assay [2], the inhibition at 10 µM is 17.6% and the concentration giving a half-maximal response (EC50) is greater than 10 µM.

For the compound `O=C(Nc1cncc(-c2cnc3[nH]nc(-c4cc5c(-c6ccccc6F)cccc5[nH]4)c3c2)c1)C1CCCC1` [Compound 66, N-(5-(3-(4-(2-Fluorophenyl)-1H-indol-2-yl)-1H-pyrazolo[3,4-b]pyridin-5-yl)pyridin-3-yl)cyclopentanecarboxamide], the EC50 in assay [1] was 9.78 µM; in assay [2], 1.15 µM.

With `O=C(Nc1cncc(-c2cnc3[nH]nc(-c4cc5c(-c6ccccn6)cccc5[nH]4)c3c2)c1)c1ccccc1` [Compound 128, N-(5-(3-(4-(Pyridin-2-yl)-1H-indol-2-yl)-1H-pyrazolo[3,4-b]pyridin-5-yl)pyridin-3-yl)benzamide], the concentration for a half-maximal effect (EC50) in assay [1] was 0.009 µM; in assay [2] it was 0.39 µM.

Take `Fc1ccc(-c2cccc3[nH]c(-c4n[nH]c5ncc(-c6cncc(CN7CCCCC7)c6)cc45)cc23)cc1` [Compound 36, 3-(4-(4-Fluorophenyl)-1H-indol-2-yl)-5-(5-(piperidin-1-ylmethyl)pyridin-3-yl)-1H-pyrazolo[3,4-b]pyridine]: in assay [1], the EC50 is greater than 10 µM and the inhibition at 10 µM was 45.5%. A half-maximal effect in assay [2] (EC50) was put at 3.66 µM.

Consider `CC(C)(C)CC(=O)Nc1cncc(-c2cnc3[nH]nc(-c4cc5c(-c6ccccc6F)cccc5[nH]4)c3c2)c1` [Compound 61, N-(5-(3-(4-(2-Fluorophenyl)-1H-indol-2-yl)-1H-pyrazolo[3,4-b]pyridin-5-yl)pyridin-3-yl)-3,3-dimethylbutanamide], for which the EC50 in assay [1] was determined as 4.64 µM; in assay [2], 2.17 µM.

As to `Cc1ccncc1-c1cnc2[nH]nc(-c3cc4c(-c5cc(F)cc(CNS(C)(=O)=O)c5)cccc4[nH]3)c2c1` [Compound 455, N-(3-Fluoro-5-(2-(5-(4-methylpyridin-3-yl)-1H-pyrazolo[3,4-b]pyridin-3-yl)-1H-indol-4-yl)benzyl)methanesulfonamide], in assay [1], the EC50 was greater than 10 µM and the inhibition at 10 µM was 54.8%. Also, in assay [2], the EC50 stood at 0.3 µM.

The compound `c1cncc(-c2cccc3[nH]c(-c4n[nH]c5ncc(-c6cncc(CN7CCCCC7)c6)cc45)cc23)c1` [Compound 84, 5-(5-(Piperidin-1-ylmethyl)pyridin-3-yl)-3-(4-(pyridin-3-yl)-1H-indol-2-yl)-1H-pyrazolo[3,4-b]pyridine] yielded a concentration giving a half-maximal response (EC50) in assay [1] of 0.355 µM. In addition, in assay [2], the inhibition at 10 µM was 48.5% and the EC50 was greater than 10 µM.

For the compound `CCCC(=O)Nc1cncc(-c2cnc3[nH]nc(-c4cc5ccccc5[nH]4)c3c2)c1` [Compound 243, N-(5-(3-(1H-Indol-2-yl)-1H-pyrazolo[3,4-b]pyridin-5-yl)pyridin-3-yl) butyramide], the EC50 was 2.08 µM in assay [1] and 0.521 µM in assay [2].

On to `CC(C)Nc1cncc(-c2cnc3[nH]nc(-c4cc5c(-c6cccnc6)cccc5[nH]4)c3c2)c1` [Compound 81, N-Isopropyl-5-(3-(4-(pyridin-3-yl)-1H-indol-2-yl)-1H-pyrazolo[3,4-b]pyridin-5-yl)pyridin-3-amine], for which the EC50 in assay [1] is 1.56 µM; in assay [2] it was 0.45 µM.

For the compound `CS(=O)(=O)NCc1cc(F)cc(-c2cccc3[nH]c(-c4n[nH]c5ncc(-c6ccccn6)cc45)cc23)c1` [Compound 478, N-(3-Fluoro-5-(2-(5-(pyridin-2-yl)-1H-pyrazolo[3,4-b]pyridin-3-yl)-1H-indol-4-yl)benzyl)methanesulfonamide], the figures for the half-maximal effective concentration (EC50) in assay [1] and in assay [2] were 0.69 µM and 3.88 µM, respectively.

As to `Oc1cncc(-c2cnc3[nH]nc(-c4cc5c(-c6cccs6)cccc5[nH]4)c3c2)c1` [Compound 711, 5-(3-(4-(Thiophen-2-yl)-1H-indol-2-yl)-1H-pyrazolo[3,4-b]pyridin-5-yl) pyridin-3-ol], the concentration for a half-maximal effect (EC50) in assay [1] turned out to be 1.96 µM; in assay [2], 9.77 µM.

`CN(C)CCNc1cc(F)cc(-c2cccc3[nH]c(-c4n[nH]c5ncc(-c6cncc(OC7CCCCC7)c6)cc45)cc23)c1` [Compound 785, N^1-(3-(2-(5-(5-(Cyclohexyloxy)pyridin-3-yl)-1H-pyrazolo[3,4-b]pyridin-3-yl)-1H-indol-4-yl)-5-fluorophenyl)-N^2,N^2-dimethylethane-1,2-diamine]: the results for the EC50 in assay [1] and in assay [2] were 1.8 µM and 2.95 µM, respectively.

For `O=C(Nc1cncc(-c2cnc3[nH]nc(-c4cc5ccccc5[nH]4)c3c2)c1)C1CCCCC1` [Compound 249, N-(5-(3-(1H-Indol-2-yl)-1H-pyrazolo[3,4-b]pyridin-5-yl)pyridin-3-yl) cyclohexanecarboxamide], the half-maximal effective concentration (EC50) was greater than 10 µM in assay [1] and 2.27 µM in assay [2]. The inhibition at 10 µM in assay [1] was 14.2%.

Take `CN(C)CCNc1cc(F)cc(-c2cccc3[nH]c(-c4n[nH]c5ncc(-c6cncc(N)c6)cc45)cc23)c1` [Compound 425, N^1-(3-(2-(5-(5-Aminopyridin-3-yl)-1H-pyrazolo[3,4-b]pyridin-3-yl)-1H-indol-4-yl)-5-fluorophenyl)-N^2,N^2-dimethylethane-1,2-diamine]: the EC50 in assay [1] came to 0.092 µM; in assay [2], 0.293 µM.

With `c1cncc(-c2cnc3[nH]nc(-c4cc5c(-c6cccnc6)cccc5[nH]4)c3c2)c1` [Compound 74, 5-(Pyridin-3-yl)-3-(4-(pyridin-3-yl)-1H-indol-2-yl)-1H-pyrazolo[3,4-b]pyridine], the figures for the EC50 in assay [1] and in assay [2] were 0.076 µM and 0.57 µM, respectively.

Consider `O=C(Nc1cncc(-c2cnc3[nH]nc(-c4cc5c(-c6ccncc6)cccc5[nH]4)c3c2)c1)C1CCCCC1` [Compound 115, N-(5-(3-(4-(Pyridin-4-yl)-1H-indol-2-yl)-1H-pyrazolo[3,4-b]pyridin-5-yl)pyridin-3-yl)cyclohexanecarboxamide], for which the EC50 worked out at 0.594 µM in assay [1] and 5.42 µM in assay [2].

Consider `CN(C)CCNc1cc(F)cc(-c2cccc3[nH]c(-c4n[nH]c5ncc(-c6cncnc6)cc45)cc23)c1` [Compound 449, N^1-(3-Fluoro-5-(2-(5-(pyrimidin-5-yl)-1H-pyrazolo[3,4-b]pyridin-3-yl)-1H-indol-4-yl)phenyl)-N^2,N^2-dimethylethane-1,2-diamine], for which the EC50 was found to be 0.007 µM in assay [1] and 2.6 µM in assay [2].

For `c1cncc(-c2cnc3[nH]nc(-c4cc5ccccc5[nH]4)c3c2)c1` [Compound 231, 3-(1H-Indol-2-yl)-5-(pyridin-3-yl)-1H-pyrazolo[3,4-b]pyridine], the EC50 in assay [1] is 0.019 µM; in assay [2], 0.66 µM.

For `CN1CCN(c2cccc3[nH]c(-c4n[nH]c5ncc(-c6ccncc6)cc45)cc23)CC1` [Compound 218, 3-(4-(4-Methylpiperazin-1-yl)-1H-indol-2-yl)-5-(pyridin-4-yl)-1H-pyrazolo[3,4-b]pyridine], the response in assay [1] was half-maximal at 0.106 µM (EC50). Besides, in assay [2], the inhibition at 10 µM is 7.7% and the concentration giving a half-maximal response (EC50) is greater than 10 µM.

Consider `CN(C)CCNc1cc(F)cc(-c2cccc3[nH]c(-c4n[nH]c5ncc(-c6cncc(NC(=O)C7CCC7)c6)cc45)cc23)c1` [Compound 443, N-(5-(3-(4-(3-((2-(Dimethylamino)ethyl)amino)-5-fluorophenyl)-1H-indol-2-yl)-1H-pyrazolo[3,4-b]pyridin-5-yl)pyridin-3-yl)cyclobutanecarboxamide], for which the concentration giving a half-maximal response (EC50) in assay [1] was greater than 10 µM; in assay [2], 0.215 µM. Also, the inhibition at 10 µM in assay [1] worked out at 47.3%.

As to `CC(C)(C)C(=O)Nc1cncc(-c2cnc3[nH]nc(-c4cc5c(-c6cccnc6)cccc5[nH]4)c3c2)c1` [Compound 78, N-(5-(3-(4-(Pyridin-3-yl)-1H-indol-2-yl)-1H-pyrazolo[3,4-b]pyridin-5-yl)pyridin-3-yl)pivalamide], the EC50 in assay [1] was determined as 0.088 µM; in assay [2], 0.634 µM.

On to `CC(C)CC(=O)Nc1cncc(-c2cnc3[nH]nc(-c4cc5c(N6CCN(C)CC6)cccc5[nH]4)c3c2)c1` [Compound 202, 3-Methyl-N-(5-(3-(4-(4-methylpiperazin-1-yl)-1H-indol-2-yl)-1H-pyrazolo[3,4-b]pyridin-5-yl)pyridin-3-yl)butanamide], for which, in assay [1], the half-maximal effective concentration (EC50) was greater than 10 µM and the inhibition at 10 µM was determined as 0%. In assay [2], this compound came in with an EC50 of 4.47 µM.

Turning to `CCNCc1cncc(-c2cnc3[nH]nc(-c4cc5c(-c6ccccc6F)cccc5[nH]4)c3c2)c1` [Compound 52, N-((5-(3-(4-(2-Fluorophenyl)-1H-indol-2-yl)-1H-pyrazolo[3,4-b]pyridin-5-yl)pyridin-3-yl)methyl)ethanamine], the concentration giving a half-maximal response (EC50) is 2.69 µM in assay [1] and 5.84 µM in assay [2].

`CCNCc1cncc(-c2cnc3[nH]nc(-c4cc5c(N6CCCCC6)cccc5[nH]4)c3c2)c1` [Compound 150, N-((5-(3-(4-(Piperidin-1-yl)-1H-indol-2-yl)-1H-pyrazolo[3,4-b]pyridin-5-yl)pyridin-3-yl)methyl)ethanamine]: the EC50 in assay [1] was 1.46 µM; in assay [2] it was 4.64 µM.
